Measurements: US9738684B2, “N-terminally modified linear and branched polyamine conjugated peptidomimetics as antimicrobials agents” (COUNCIL OF SCIENTIFIC & INDUSTRIAL RESEARCH, priority 2015, dated 2017)
In brackets after ≈: the same amount, converted by molar mass. Several values for one entry are separate records, joined by “and”; a condition that tells them apart may be missing. Equal values may be shown once.

Legend:
[1] = test system: Escherichia coli (ATCC 11775); assay: MIC, serial broth dilution; assay type: cell-based; design: MIC E. coli. (ATCC 11775): unit not given here; conditions: MHB, 18 h, 37° C.
Protocol: (§1) The peptidomimetics designed in present invention were evaluated as antibacterial therapeutics against a broad range of bacterial strains by broth microdilution method. The antibacterial activity of the peptidomimetics was reported in terms of the minimum inhibitory concentrations (MIC).
(§2) Following bacterial strains were used in this study: S. aureus (ATCC 29213), methicillin resistant S. aureus (ATCC 33591), Staphylococcus epidermidis (ATCC 12228), methicillin resistant Staphylococcus epidermidis(ATCC 51625), Enterococcus faecalis (ATCC 7080), Escherichia coli (ATCC 11775), and Acinetobacter baumannii (ATCC 19606). Antibacterial activity was evaluated using a modified serial broth dilution method in accordance with Clinical Laboratory Standard Institute guidelines [Methods for dilution antimicrobial susceptibility tests for bacteria that grow aerobically-7th ed. Approved standard M7-A7. Clinical and Laboratory Standards Institute, Wayne, Pa., Biochim. Biophys. Acta 1798:1864-1875, 2010.]. Briefly, the inoculums were prepared from mid-log phase bacterial cultures. Peptidomimetics were incubated with bacterial suspension in Muller Hinton broth media (10^5 CFU/mL) in 96 well microtitre plate. The plates were incubated overnight with agitation (200 rpm) at 37° C. After 18 h, absorbance was measured at 630 nm. Cultures without test peptidomimetics were used as positive control. Un-inoculated Mueller Hinton Broth (MHB) was used as negative control. Tests were carried out in duplicate on at least three different days. […] For comparison standard peptide antibiotics vancomycin (VAN) and polymyxin B (PMB) were also assayed under identical conditions (Table 2). […] Further, antibacterial activity of active peptidomimetics 1c and 1d were also evaluated against MRSA in presence of 25% v/v human serum as well as bovine serum.

[2] = test system: MRSA (ATCC 33591) biofilm; assay: 24 h preformed mature biofilm (alamar blue, crystal violet); assay type: cell-based, Staphylococcus aureus; conditions: 20×MICb: 1c 140 μg/mL, 1d 70 μg/mL, VAN 20 μg/mL
Protocol: (§3) To evaluate potential of designed active peptidomimetics against MRSA biofilms a methodology as used previously was employed with minor modifications [Antimicrob. Agents Chemother., 57:2726-2737, 2013]. Briefly, freshly inoculated MRSA (ATCC 33591) was grown in biofilm growth media (TSB supplemented with 0.5% w/v NaCl and 0.25% w/v glucose) overnight. Next day, the culture was diluted in fresh biofilm growth media to 10^5 CFU/mL. 200 μl of diluted culture was dispensed in wells of a 96-well polystyrene plate for biofilm formation. […] Biofilm cultures were re-incubated at 37° C. for 24 h. After removal of medium, the biofilms were further washed twice with sterile NaCl/Pi buffer and assessed for metabolic activity (alamar blue assay) and biomass quantification (Crystal violet assay).

[3] = test system: MRSA (ATCC 33591); assay: Planktonic MIC in biofilm media (MICb); assay type: cell-based, Staphylococcus aureus; conditions: TSB with 0.5% NaCl and 0.25% glucose
[4] = test system: Staphylococcus epidermidis (ATCC 12228); assay: MIC, serial broth dilution; assay type: cell-based; conditions: MHB, 18 h, 37° C.
Protocol: as §1, §2

[5] = test system: MRSA (ATCC 33591) biofilm; assay: Confocal laser scanning microscopy of biofilm, thickness by z-stacking; assay type: cell-based, Staphylococcus aureus; conditions: for thickness of mature biofilm after treatment: 10×MICb, untreated 23.6±2.5 μm; for thickness of mature biofilm after treatment / confocal observation of mature biofilm: 24 h preformed biofilm; for confocal observation of mature biofilm: 20×MICb; for average thickness of biofilm, biofilm formation: MICb; for average thickness of biofilm, biofilm formation / thickness of biofilm, biofilm formation: control 14.3±1.4 μm; for thickness of biofilm, biofilm formation: sub-MICb
Source text: For visualization of biofilm and validation of AB and CV assay we performed confocal microscopy. For this biofilm formation was induced on glass cover slips in a 6-well plate. The biofilm on cover slips were washed twice with sterile NaCl/Pi buffer and stained with a Live/Dead kit reagent (Invitrogen, Molecular Probes, Eugene, Oreg., USA) following the manufacturer's instructions. This stain contains DNA binding dyes SYTO 9 (green fluorescent) and propidium iodide (PI; red fluorescent). When used alone, SYTO 9 stains all bacteria in a population, those with intact as well as damaged membranes. In contrast, PI penetrates only bacteria with damaged membranes, causing a reduction in the SYTO 9 stain (green fluorescence). The biofilms were examined with an Olympus flow view FV1000 (confocal laser scanning microscope, CLSM). The experiment was repeated three times on three different days and representative data is presented here.
We next measured the thickness of biofilm using z-stacking in confocal microscopy. […] At MICb, 1c and 1d prevented formation of biofilm in which very few cells were adhered to substratum with observed average thickness of 3.9±1.1 μm and 3.5±0.6 μm, respectively. Furthermore, at sub-MICb concentration the observed thicknesses were 5.2±0.3 μm and 5.8±0.4 μm (FIG. 7A.b and FIG. 7A.d).

[6] = test system: S. aureus (ATCC 29213); assay: MIC, serial broth dilution; assay type: cell-based, Staphylococcus aureus; conditions: MHB, 18 h, 37° C.
Protocol: as §1, §2

[7] = test system: methicillin resistant S. aureus (ATCC 33591); assay: MIC, serial broth dilution; assay type: cell-based, Staphylococcus aureus; conditions: MHB, 18 h, 37° C.
Protocol: as §1, §2

[8] = test system: MRSA (ATCC 33591) biofilm; assay: Inhibition of biofilm formation (alamar blue, crystal violet); assay type: cell-based, Staphylococcus aureus; conditions: sub-MICb; for reduction in metabolic activity (alamar blue), biofilm formation: printed as 'reduction up to'
Protocol: as §3

[9] = test system: peripheral blood mononuclear cells (PBMCs); assay: LDH release cytotoxicity assay; assay type: cell-based, human; conditions: 20 μg/mL, 24 h
Protocol: For the experiment a protocol as used previously was employed with minor modifications [J. Immunol. Methods, 115:61-69, 1988; Chem. Biol. 20:1286-1295, 2013.]. Briefly, blood was collected from healthy human donors in sodium heparin anticoagulant tubes in accordance with institutional guidelines. The blood was diluted 1:1 with NaCl/Pi (35 mM phosphate buffer, 150 mM NaCl, pH 7.2). Blood cells were separated over histopaque (Sigma-aldrich) by centrifugation for 30 min at 1200 rpm. The PBMCs were collected and washed twice with NaCl/Pi (35 mM phosphate buffer, 150 mM NaCl, pH 7.2). The cells were then re-suspended in complete RPMI 1640 medium (Himedia) supplemented with 10% FBS (Sigma) and quantified by trypan blue exclusion on microscope. PBMCs (1×10^6 cells/mL) in complete media were seeded into a 24-well plate and left in the incubator for 2 h at 37° C. in 5% CO2. The cells were then treated with 1c, 1d and VAN at desired concentrations (20 μg/mL). 2% Triton X-100 was used as a […] control. After 24 h of incubation, the content of each well was transferred to sterile 1.5 mL eppendorf tube and cells were pelleted at 2000 rpm for 10 min. The supernatant was assessed for the release of LDH by using the TOX7 kit (Sigma). […]

[10] = test system: MRSA; assay: MIC in presence of 25% v/v human serum; assay type: cell-based, Staphylococcus aureus
Protocol: Following bacterial strains were used in this study: S. aureus (ATCC 29213), methicillin resistant S. aureus (ATCC 33591), Staphylococcus epidermidis (ATCC 12228), methicillin resistant Staphylococcus epidermidis(ATCC 51625), Enterococcus faecalis (ATCC 7080), Escherichia coli (ATCC 11775), and Acinetobacter baumannii (ATCC 19606). Antibacterial activity was evaluated using a modified serial broth dilution method in accordance with Clinical Laboratory Standard Institute guidelines [Methods for dilution antimicrobial susceptibility tests for bacteria that grow aerobically-7th ed. Approved standard M7-A7. Clinical and Laboratory Standards Institute, Wayne, Pa., Biochim. Biophys. Acta 1798:1864-1875, 2010.]. Briefly, the inoculums were prepared from mid-log phase bacterial cultures. Peptidomimetics were incubated with bacterial suspension in Muller Hinton broth media (10^5 CFU/mL) in 96 well microtitre plate. The plates were incubated overnight with agitation (200 rpm) at 37° C. After 18 h, absorbance was measured at 630 nm. Cultures without test peptidomimetics were used as positive control. Un-inoculated Mueller Hinton Broth (MHB) was used as negative control. Tests were carried out in duplicate on at least three different days. […] Further, antibacterial activity of active peptidomimetics 1c and 1d were also evaluated against MRSA in presence of 25% v/v human serum as well as bovine serum.

NCCCNCCCCNCCCNC(=O)C(Cc1c[nH]c2ccccc12)NC(=O)C(Cc1c[nH]c2ccccc12)NC(=O)Cc1ccc(C(F)(F)F)cc1 (stereo not shown) [1c]
MIC E. coli. (ATCC 11775) [1]: 56.8 | biomass remaining compared to control, 24 h pre-formed biofilm (crystal violet) [2]: 24.0±13.4% | MICb, planktonic MIC in biofilm media [3]: 7.1 µg/mL | MIC S. epidermidis (ATCC 12228) [4]: 1.7 µg/mL (≈ 2.23 µM) | thickness of mature biofilm after treatment [5]: 7.1±1.5 μm | confocal observation of mature biofilm [5]: most of the cells lost their integrity | average thickness of biofilm, biofilm formation [5]: 3.9±1.1 μm | thickness of biofilm, biofilm formation [5]: 5.2±0.3 μm | MIC S. aureus (ATCC 29213) [6]: 0.0017 µg/mL (≈ 0.00223 µM) | MIC MRSA (ATCC 33591) [7]: 3.5 µg/mL (≈ 4.6 µM) | % biomass reduction (crystal violet), biofilm formation [8]: 19.8±5.6% | reduction in metabolic activity (alamar blue), biofilm formation [8]: 33.1±5.7% | % LDH release against peripheral blood mononuclear cells [9]: 5.78±6.58% and 5.78% | increase in MIC in human serum [10]: 4 fold

CCCCCCCCCC(=O)NC(Cc1c[nH]c2ccccc12)C(=O)NC(Cc1c[nH]c2ccccc12)C(=O)NCCCNCCCCNCCCN (stereo not shown) [1d]
MIC E. coli. (ATCC 11775) [1]: 14.2 | biomass remaining compared to control, 24 h pre-formed biofilm (crystal violet) [2]: 21.4±9.2% | MICb, planktonic MIC in biofilm media [3]: 3.5 µg/mL | MIC S. epidermidis (ATCC 12228) [4]: 1.7 µg/mL (≈ 2.33 µM) | thickness of mature biofilm after treatment [5]: 7.0±1.0 μm | confocal observation of mature biofilm [5]: most of the cells lost their integrity | average thickness of biofilm, biofilm formation [5]: 3.5±0.6 μm | thickness of biofilm, biofilm formation [5]: 5.8±0.4 μm | MIC S. aureus (ATCC 29213) [6]: 0.0017 µg/mL (≈ 0.00233 µM) | MIC MRSA (ATCC 33591) [7]: 1.7 µg/mL (≈ 2.33 µM) | % biomass reduction (crystal violet), biofilm formation [8]: 28.2±11.1% | reduction in metabolic activity (alamar blue), biofilm formation [8]: 26.4±3.3% | % LDH release against peripheral blood mononuclear cells [9]: 17.56±10.15% and 17.5% | increase in MIC in human serum [10]: 8 fold
